From paper PMC7180134 (Angewandte Chemie (International ed. in English), 2020)

Molecular target: T1, human NTH1 (hNTH1, endonuclease III-like protein 1) (Homo sapiens, UniProt P78549)
T1 sequence (P78549 23-304): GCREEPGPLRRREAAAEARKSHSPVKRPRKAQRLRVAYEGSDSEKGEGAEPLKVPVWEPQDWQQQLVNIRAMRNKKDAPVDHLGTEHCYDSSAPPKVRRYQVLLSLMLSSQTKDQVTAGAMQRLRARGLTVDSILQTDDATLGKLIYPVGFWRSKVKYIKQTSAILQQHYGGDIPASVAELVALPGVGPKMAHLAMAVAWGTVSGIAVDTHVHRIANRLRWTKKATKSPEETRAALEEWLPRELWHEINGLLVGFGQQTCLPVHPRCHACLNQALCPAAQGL
Assay type: biochemical

IC50: 780 nM
SMILES: Nc1ncnc2c1c(-c1cccc(OCc3ccccc3)c1)cn2[C@H]1C[C@@H](CN2CCC2)C1 [NVP-AEW541]
